Source: patent publication US20050227982A1, “Antileishmanial dinitroaniline sulfanomides with activity against parasite tubulin” (priority 2002, published 2005)
Read-outs that look alike come from different tables or passages of the source.

Assays:
[1] = tested on: J774 murine macrophages; experiment: Toxicity to J774 macrophages (three-day CellTiter assay); type: cell-based; details: read-out: IC50, J774 macrophages
Protocol: The toxicity of compounds to J774 murine macrophages and PC3 […] cells was measured in a three-day assay using the CellTiter reagent. […] Macrophages were allowed to adhere for 24 hours, then the medium was removed and replaced with serial dilutions of the test compounds in the DMEM medium mentioned above without phenol red. After 72 hr incubation with the test compounds at 37° C. in a humidified 5% CO2 incubator, cell viability was determined using the CellTiter reagent by adding 20 μL of assay solution to each well. After a 6-7 h incubation at 37° C. to allow for color development, the absorbance of each well at 490 nm was measured in a SpectraMax Pro microplate reader (Molecular Devices). The toxicity of compounds to PC3 cells was assessed in the same manner as for the macrophages, except that the medium used was RPMI 1640 supplemented with 10% heat inactivated fetal calf serum, 2.0 mM L-glutamine, 50 units/mL penicillin, and 50 ∝g/mL streptomycin. IC50 values for the J774 and PC3 assays were determined with the software program SoftMax Pro as described earlier.

[2] = tested on: L. donovani axenic amastigotes; experiment: Growth inhibition of L. donovani axenic amastigotes (three-day tetrazolium dye assay); type: cell-based, Leishmania donovani
Protocol: (§1) 2000, 110, 223-236, incorporated herein by reference.^14
(§2) Determination of the drug susceptibility of parasites and mammalian cells. The susceptibility of Leishmania donovani amastigote-like parasites (WHO designation: MHOM/SD/62/1S-CL2D) to growth inhibition by compounds of interest was measured in a three-day assay using the tetrazolium dye-based CellTiter reagent (Promega) (Werbovetz, K., Brendle, J., and Sackett, D. (1999) Mol. Biochem. Parasitol. 98, 53-65., and Havens, C., Bryant, N., Asher, L., Lamoreaux, L., Perfetto, S., Brendle, J., and Werbovetz, K. (2000) Mol. Biochem. Parasitol. 110, 223-236). The amastigote medium used in this assay is based on the medium mentioned by Joshi et al. (Joshi, M., Dwyer, D. M., and Nakhasi, H. L. (1993) Mol. Biochem. Parasitol. 58, 345-354). Prior to addition of fetal bovine serum to a final concentration of 20%, this amastigote medium contains 15 mM KCl, 115 mM KH2PO4, 10 mM K2HPO4, 0.5 mM MgSO4, 24 mM NaHCO3, a 1-concentration of RPMI-1640 vitamins and amino acids, 2.0 mM L-glutamine, 22 mM D-glucose, 100 units/mL penicillin, 100 ∝g/ml streptomycin, 0.1 mM adenosine, 1 ∝g/mL folate, and 25 mM MES (pH 5.5). Compounds were tested for their activity against bloodstream-form Trypanosoma brucei brucei (MITat 1.2, variant 221) axenically-cultured in HMI-9 medium , H., and Hirumi, K. (1989) J. Parasitol. 75, 985-989.) following the procedure of Ellis et al. (Ellis, J., Fish, W., Sileghem, M., and McOdimba, F. (1993) Vet. Parasitol. 50, 143-149.) with some modifications. Briefly, 100 μL of late log phase parasites were incubated in 96-well plates (Costar) at an initial concentration of 10^5 cells/ml with or without test compounds at 37° C. in a humidified 5% CO2 atmosphere for 72 hours. Twenty-five μL of a 5 mg/mL solution of MTT (prepared in phosphate buffered saline and filter sterilized) was then added to each well and plates were re-incubated at 37° C. as before for 2 h. One hundred ∝L of 20% SDS lysis buffer (prepared in 50% aqueous DMF) was added to each well and plates were incubated as before for an additional 3-4 h. Optical densities were then measured at 570 nm using SpectraMax Plus microplate reader. […] Assessment of the in vitro sensitivity of T. b. brucei Lab 110 EATRO and P. falciparum strains to compounds was performed by methods described in Donkor et al. (Donkor, I., Assefa, H., Rattendi, D., Lane, S., Vargas, M., Goldberg, B., and Bacchi, C. (2001) Eur. J. Med. Chem. 36, 531-538.) and Guan et al. (Guan, J., Kyle, D., Gerena, L., Zhang, Q., Milhous, W., and Lin, A. (2002) J. Med. Chem. 45, 2741-2748).

[3] = tested on: Trypanosoma brucei brucei (MITat 1.2, variant 221); experiment: microbe, parasite or virus in culture; type: cell-based; details: read-out: IC50, T. b. brucei variant 221
Protocol: as §2

[4] = tested on: L. donovani promastigotes; experiment: Growth inhibition of L. donovani promastigotes; type: cell-based, Leishmania donovani; details: read-out: IC50 vs. L. donovani promastigotes
[5] = tested on: leishmanial tubulin; type: biochemical; details: mean ± SD of at least one duplicate measurement, SD of controls 27.6%
Protocol: as §1
Briefly, the tubulin assembly assays are performed as follows. […] The change in turbidity was measured at 351 nm using the SpectraMax Plus microplate reader immediately after GTP addition at 30° C. (for leishmanial tubulin) or 37° C. (for brain tubulin).

[6] = unit inferred, three-day tetrazolium dye assay, read-out: IC50, L. donovani axenic amastigotes
[7] = Leishmania donovani, Table 1, mean ± standard deviation of at least two independent measurements, read-out: IC50 vs. L. donovani amastigotes
[8] = Trypanosoma brucei, unit inferred
[9] = mean ± standard deviation of at least two independent measurements

Compound	IC50 ([1]; unit inferred) [µM]	IC50 [2, 6] [µM]	IC50 ([3]; unit inferred) [µM]	other results
CCCN(CCC)c1c([N+](=O)[O-])cc(S(=O)(=O)Nc2ccc(Cl)c(Cl)c2)cc1[N+](=O)[O-] [Compound 44, N1-(3,4-Dichloro)phenyl-3,5-dinitro-N4,N4-di-n-propylsulfonilamide]	7.19 ± 0.59	5.03 ± 0.8	6.7	–
CCCN(CCC)c1c([N+](=O)[O-])cc(S(=O)(=O)N(C)C)cc1[N+](=O)[O-] [Compound 34, N1,M1-Dimethyl-3,5-dinitro-N4,N4-di-n-propylsulfonilamide]	–	> 100	5.9	–
CCCCN(CCCC)c1c([N+](=O)[O-])cc(S(=O)(=O)Nc2ccccc2)cc1[N+](=O)[O-] [Compound 32, N1-Phenyl-3,5-dinitro-N4,N4-di-n-butylsulfonilamide]	11.9 ± 0.5	2.57 ± 0.25	0.1	–
CCCN(CCC)c1c([N+](=O)[O-])cc(S(=O)(=O)Nc2cc(Cl)cc(Cl)c2)cc1[N+](=O)[O-] [Compound 45, N1-(3,5-Dichloro)phenyl-3,5-dinitro-N4,N4-di-n-propylsulfonilamide]	5.12 ± 0.35	3.71 ± 0.91	3.4	–
CCCN(CCC)c1c([N+](=O)[O-])cc(S(=O)(=O)Nc2ccccn2)cc1[N+](=O)[O-] [Compound 46, N1-(2-Pyridinyl)-3,5-dinitro-N4,N4-di-n-propylsulfonilamide]	44.9 ± 16.3	59.7 ± 6.2	10.9	–
N=C(N)c1ccc(OCCCCCOc2ccc(C(=N)N)cc2)cc1 [Pentamidine, reference compound]	–	–	–	IC50 ([4]; Leishmania donovani, mean ± standard deviation of at least two independent measurements): 1.61 ± 0.22 µM; IC50 ([2]; Leishmania donovani, 72 h, unit inferred, three-day tetrazolium dye assay, read-out: IC50, L. donovani axenic amastigotes): 2 ± 0.06 µM; IC50 [2, 7]: 2 ± 0.06 µM; IC50 [3, 8]: 0.0194 ± 0.0069 µM
CCCN(CCC)c1c([N+](=O)[O-])cc(S(=O)(=O)N(CC)CC)cc1[N+](=O)[O-] [Compound 36, N1,N1-Diethyl-3,5-dinitro-N4,N4-di-n-propylsulfonilamide]	–	26.7 ± 0.4	10.2	–
CCCN(CCC)c1c([N+](=O)[O-])cc(S(=O)(=O)Nc2ccc(C)cc2)cc1[N+](=O)[O-] [Compound 40, N1-(4Methyl)phenyl-3,5-dinitro-N4,N4-di-n-propylsulfonilamide]	10.5 ± 2	32.1 ± 12.7	10.5	–
CCCNc1c([N+](=O)[O-])cc(S(N)(=O)=O)cc1[N+](=O)[O-] [Compound 13]	–	–	–	% Inhibition of Leishmanial Tubulin Assembly at 20 μM Compound [5]: 43 ± 19%; IC50 [4, 9]: 67 ± 18.4 µM
CCN(CC)c1c([N+](=O)[O-])cc(S(=O)(=O)Nc2ccccc2)cc1[N+](=O)[O-] [Compound 31, N1-Phenyl-3,5-dinitro-N4,N4-di-n-ethylsulfonilamide]	47.7 ± 1.6	10.6 ± 2.6	1.9	–
CCCN(CCC)c1c([N+](=O)[O-])cc(C#N)cc1[N+](=O)[O-] [Compound 27]	–	–	–	% Inhibition of Leishmanial Tubulin Assembly at 20 μM Compound [5]: 25 ± 17%; IC50 [4, 9]: > 100 µM
CCCN(CCC)c1c([N+](=O)[O-])cc(S(=O)(=O)Nc2ccc(OC)cc2)cc1[N+](=O)[O-] [Compound 39, N1-(4-Methoxy)phenyl-3,5-dinitro-N4,N4-di-n-Propylsulfonilamide]	15.2 ± 6.7	31.9 ± 14.6	20.5	–
CCCN(CCC)c1c([N+](=O)[O-])cc(S(=O)(=O)NCC)cc1[N+](=O)[O-] [Compound 35, N1-Ethyl-3,5-dinitro-N4,N4-di-n-propylsulfonilamide]	–	> 100	4	–
N1-(3-Methyl)phenyl-3,5-dinitro-N4,N4-di-n-propylsulfonilamide [Compound 42]	–	–	–	IC50 [1]: 15.8 ± 2.1 µM; IC50 ([2]; read-out: IC50, L. donovani axenic amastigotes): 22.7 ± 0.8 µM; IC50 [3]: 0.92 µM
NS(=O)(=O)c1cc([N+](=O)[O-])c(N2CCCC2)c([N+](=O)[O-])c1 [Compound 19]	–	–	–	% Inhibition of Leishmanial Tubulin Assembly at 20 μM Compound [5]: 57 ± 18%; IC50 [4, 9]: 97.1 ± 53 µM
CCCN(CCC)c1c([N+](=O)[O-])cc(S(=O)(=O)NC)cc1[N+](=O)[O-] [Compound 33, N1-Methyl-3,5-dinitro-N4,N4di-n-propylsulfonilamide]	–	> 100	4.6	–
CCCN(CCC)c1c([N+](=O)[O-])cc(S(=O)(=O)Nc2cccc(Cl)c2)cc1[N+](=O)[O-] [Compound 43, N1-(3-Chloro)phenyl-3,5-dinitro-N4,N4-di-n-propylsulfonilamide]	8.67 ± 0.17	5.47 ± 0.1	0.88	–
CCCN(CCC)c1c([N+](=O)[O-])cc(S(=O)(=O)Nc2ccc(Cl)cc2)cc1[N+](=O)[O-] [Compound 41, N1-(4-Chloro)phenyl-3,5dinitro-N4,N4-di-n-propylsulfonilamide]	9.13 ± 3.81	13.3 ± 3	9.5	–
CCCN(CCC)c1c([N+](=O)[O-])cc(S(=O)(=O)NC(C)C)cc1[N+](=O)[O-] [Compound 38, N1-Isopropyl-3,5-dinitro-N4,N4-di-n-propylsulfonilamide]	–	42.8 ± 2.3	2.5	–
Cc1ccc(C(=O)Nc2ccc(S(=O)(=O)O)c3cc(S(=O)(=O)O)cc(S(=O)(=O)O)c23)cc1NC(=O)c1cccc(NC(=O)Nc2cccc(C(=O)Nc3cc(C(=O)Nc4ccc(S(=O)(=O)O)c5cc(S(=O)(=O)O)cc(S(=O)(=O)O)c45)ccc3C)c2)c1 [Suramin, reference compound]	–	–	–	IC50 [3, 8]: 0.233 ± 0.05 µM
CCCN(CCC)c1c([N+](=O)[O-])cc(C(N)=NO)cc1[N+](=O)[O-] [Compound 29]	–	–	–	% Inhibition of Leishmanial Tubulin Assembly at 20 μM Compound [5]: 35 ± 7%; IC50 [4, 9]: > 100 µM
CCCCCN(CCCCC)c1c([N+](=O)[O-])cc(S(N)(=O)=O)cc1[N+](=O)[O-] [Compound 16]	–	–	–	% Inhibition of Leishmanial Tubulin Assembly at 20 μM Compound [5]: 95 ± 5%; IC50 ([4]; Leishmania donovani): 8.02 ± 0.42 µM; IC50 [2, 7]: 9 ± 0.7 µM
CCCN(CCC)c1c([N+](=O)[O-])cc(S(=O)(=O)Nc2cccc(OC)c2)cc1[N+](=O)[O-] [Compound 30, N1-(3-Methoxy)phenyl-3,5-dinitro-N4,N4-di-n-propylsulfonilamide]	25.3 ± 3.8	8.11 ± 3.33	0.5	–
